Columns and labels:
[1] = test system: organotypic hippocampal slice cultures (CA1 pyramidal cell layer); assay: Free-radical mediated injury (duroquinone), cell death by PI fluorescence; format: cell-based, Wistar rat; conditions: 100 μM duroquinone 3 h; 300 μM compound
Procedure: Organotypic hippocampal slice cultures were prepared according to established methods (Pringle et al. (1997), Brain Res., 755, 36-46). In brief, Wistar rat pups (8-11 days old) were decapitated and the hippocampus rapidly dissected into ice-cold Gey's balanced salt solution (Gibco Life Technologies, Paisley, UK) supplemented with 4.5 mg ml^−1 glucose. Slices were separated and plated onto Millicell CM culture inserts (4 per well) and maintained at 37° C. and 5% CO2 for 14 days. […]
Free-radical mediated injury was performed as described previously with L-Arg3,4 present pre-, during, and post-injury in treated cultures (Wilde et al. (1997, J. Neurochem., 69, 883-886). Briefly, cultures were transferred to SFM+PI with or without 300 μM L-Arg3,4 and allowed to equilibrate for 30 min prior to imaging. Any cultures in which PI fluorescence was detected at this stage were excluded from further study. Duroquinone (DQ) was dissolved in DMSO at a stock concentration of 100 mM which was then diluted 1:1000 in SFM for a final working concentration of 100 μM (final DMSO concentration of 0.1%). […]
Neuronal damage was assessed as described previously (Pringle et al. (1996), Stroke, 27, 2124-2130; Pringle et al. (1997), Brain Res., 755, 36-46). Light transmission images were captured prior to the induction of injury, and PI fluorescence images recorded at the end of the 24 h post-injury recovery period. […]

[2] = test system: superoxide production in organotypic slice cultures (CA1 pyramidal cell layer); assay: Superoxide production monitored fluorescently with hydroethidine (HEt); format: cell-based, Wistar rat
Procedure: Hydroethidine (HEt) has been utilised to fluorescently monitor the production of superoxide in primary neuronal cultures [Bindokas et al., (1996), Carriedo et al. (1998)]. A stock solution of HEt was made was made in N2 sparged DMSO (10 mg ml^−1) which was then aliquoted and stored at −80° C. aliquots were used only once before being discarded. Two separate experimental paradigms were employed to test the effect of L-Arg3,4 on superoxide production in response to either AMPA or NMDA stimulation.
For the AMA experiments, organotypic slice cultures were loaded with 1 μg ml^−1 HEt in HEPES buffered salt solution (HSS) (in mM): glucose 10, NaCl 144, KCl 5, HEPES 10, MgCl2 1, CaCl2 2, pH 7.4, for 30 minutes in the dark. All subsequent solutions contained HEt to prevent a decrease in signal due to reporter depletion. Images were acquired once per minute for the duration of the experiment on the same system as described above for assessment of cell death. A 10 minute record of baseline superoxide production was produced before the bathing solution was exchanged for HBSS+BEt containing 10 μM AMPA, again for 10 minutes. As shown previously, stimulation of glutamate receptors with AMPA lead to an increase in superoxide production [Bindokas et al., (1996), Carriedo et al. (1998)]. The bathing solution was then exchanged for HBSS+HEt containing both 10 μM AMPA and 300 μM L-Arg3,4 for 10 minutes to test the effect of L-Arg3,4 on superoxide production. In separate control experiments, 300 μM L-Arg3,4 in HSS was incubated with slices to determine if it affected baseline superoxide production on its own.
Acquired images from the AMPA experiments were then analysed with the OpenLab image analysis package. A region of interest was drawn around the CA1 pyramidal cell layer because this was the cell layer that produced the largest increase in fluorescence in response to AMPA activation. In each image, within the region of interest, the average pixel value was calculated in arbitrary units (AU) to produce a record of fluorescence intensity values over time. A linear regression was then performed on the data to calculate the rate of superoxide production as change in intensity over time (arbitrary units per minute, AU min^−1) for each of the treatments. Data is presented as mean±s.d. Rates of superoxide production were then compared by ANOVA followed by post-hoc comparisons with Bonferroni corrections with significance indicated as * for P<0.05 and ** for P<0.01.

[3] = previous studies, WO99/31049; cited from earlier work

Structure (SMILES): N=C(N)NCCCC(N)C(=O)NCCCNCCCCN [L-Arg3,4, L-arginyl-3,4-spermidine]
- injury (cell death in CA1) [1]: 21±5%
- protection [1]: 46%
- rate of baseline superoxide production ([2]; 300 μM compound alone, no AMPA): 2.55±2.02 AU min^−1
- rate of superoxide production ([2]; 300 μM compound in continued presence of 10 μM AMPA): 5.07±1.94 AU min-d
- effect on blood pressure, heart rate, respiration, motor function [3]: did not affect blood pressure, heart rate or respiration, or result in adverse motor function

Source: patent publication US20050124554A1, “Spermidine derivatives for the treatment of chronic neurodegenerative diseases” (priority 2002, published 2005)
